≈ marks a conversion by molar mass, not a printed value. One block for each molecule: values may come before it.
Legend:
MDA-MB-231 = assay: Antiproliferative activity against human MDA-MB-231 cells assessed as reduction in cell viability incubated for 48 hrs by CCK-8 assay; format: functional, cell-based; settings: MDA-MB-231, 48 h
SW-620 = assay: Cytotoxicity against human SW-620 cells assessed as reduction in cell viability incubated for 48 hrs by CCK-8 assay; format: functional, cell-based; settings: SW-620, 48 h
DU-145 = assay: Cytotoxicity against human DU-145 cells assessed as cell growth inhibition measured after 48 hrs by MTT assay; format: functional, cell-based; settings: DU-145, 48 h
NCI-H460 = assay: Cytotoxicity against human NCI-H460 cells assessed as reduction in cell viability incubated for 48 hrs by MTT assay; format: functional, cell-based; settings: NCI-H460, 48 h
MCF7 [1] = assay: Cytotoxicity against human MCF7 cells assessed as reduction in cell viability incubated for 48 hrs by MTT assay; format: functional, cell-based; settings: MCF7, 48 h
HCT-15 = assay: Cytotoxicity against human HCT-15 cells assessed as reduction in cell viability incubated for 48 hrs by MTT assay; format: functional, cell-based; settings: HCT-15, 48 h
SF-268 = assay: Cytotoxicity against human SF-268 cells assessed as reduction in cell viability incubated for 48 hrs by MTT assay; format: functional, cell-based; settings: SF-268, 48 h
HCT-116 [2] = assay: Cytotoxicity against human HCT-116 cells assessed as reduction in cell viability incubated for 72 hrs by MTT assay; format: functional, cell-based; settings: HCT-116, 72 h
A549 [3] = assay: Cytotoxicity against human A549 cells assessed as reduction in cell viability measured after 72 hrs by MTT assay; format: functional, cell-based; settings: A549, 72 h
MDA-MB-435 [4] = assay: Cytotoxicity against human MDA-MB-435 cells assessed as reduction in cell viability incubated for 72 hrs by MTT assay; format: functional, cell-based; settings: MDA-MB-435, 72 h
MDA-MB-435 [5] = assay: Antiproliferative activity against human MDA-MB-435 cells; format: functional, cell-based
A549 [6] = assay: Antiproliferative activity against human A549 cells assessed as reduction in cell viability incubated for 48 hrs by MTT assay; format: functional, cell-based; settings: A549, 48 h
HCT-116 [7] = assay: Antiproliferative activity against human HCT-116 cells assessed as reduction in cell viability incubated for 48 hrs by MTT assay; format: functional, cell-based; settings: HCT-116, 48 h
A549 [8] = assay: Cytotoxicity against human A549 cells assessed as reduction in cell viability incubated for 72 hrs by MTT assay; format: functional, cell-based; settings: A549, 72 h
PC-9 = assay: Cytotoxicity against human PC-9 cells assessed as reduction in cell viability incubated for 72 hrs by MTT assay; format: functional, cell-based; settings: PC-9, 72 h
MCF7 [9] = assay: Cytotoxicity against human MCF7 cells assessed as reduction in cell viability measured after 72 hrs by MTT assay; format: functional, cell-based; settings: MCF7, 72 h
PC-3 = assay: Cytotoxicity against human PC-3 cells assessed as reduction in cell viability measured after 72 hrs by MTT assay; format: functional, cell-based; settings: PC-3, 72 h
HCCLM9 = assay: Antiproliferative activity against human HCCLM9 cells assessed as reduction in cell growth incubated for 48 hrs by CCK-8 assay; format: functional, cell-based; settings: HCCLM9, 48 h
Huh-7 = assay: Antiproliferative activity against human Huh-7 cells assessed as reduction in cell viability incubated for 48 hrs by CCK-8 assay; format: functional, cell-based; settings: Huh-7, 48 h
HepG2 [10] = assay: Antiproliferative activity against human HepG2 cells assessed as reduction in cell viability incubated for 48 hrs by CCK-8 assay; format: functional, cell-based; settings: HepG2, 48 h
A549 [11] = assay: Antiproliferative activity against human A549 cells; format: functional, cell-based
HCT-116 [12] = assay: Antiproliferative activity against human HCT-116 cells; format: functional, cell-based
[13] = Solubility of compound in water; format: physicochemical
MCF7 [14] = assay: Antiproliferative activity against human MCF7 cells; format: functional, cell-based
[15] = Antiproliferative activity against human HUVEC cells; format: toxicity, cell-based
MCF7 [16] = assay: Antiproliferative activity against human MCF7 cells assessed as reduction in cell viability incubated for 48 hrs by MTT assay; format: functional, cell-based; settings: MCF7, 48 h
HCT-116 [17] = assay: Antiproliferative activity against human HCT-116 cells assessed as reduction in cell viability incubated for 48 hrs by CCK-8 assay; format: functional, cell-based; settings: HCT-116, 48 h
[18] = Solubility of compound in water incubated for 24 hrs by HPLC-UV analysis; format: physicochemical
HGC-27 = assay: Antiproliferative activity against human HGC-27 cells assessed as reduction in cell viability measured after 48 hrs by MTT assay; format: functional, cell-based; settings: HGC-27, 48 h
MDA-MB-435 [19] = assay: Cytotoxicity against human MDA-MB-435 cells assessed as reduction in cell viability measured after 24 hrs by MTT assay; format: functional, cell-based; settings: MDA-MB-435, 24 h
A549 [20] = assay: Cytotoxicity against human A549 cells assessed as reduction in cell viability measured after 24 hrs by MTT assay; format: functional, cell-based; settings: A549, 24 h
HCT-116 [21] = assay: Cytotoxicity against human HCT-116 cells assessed as reduction in cell viability measured after 24 hrs by MTT assay; format: functional, cell-based; settings: HCT-116, 24 h
Histone deacetylase 1 = Histone deacetylase 1 (Homo sapiens, UniProt Q13547); assay: Inhibition of HDAC1 (unknown origin)
Histone deacetylase 1, sequence (Q13547 whole entry): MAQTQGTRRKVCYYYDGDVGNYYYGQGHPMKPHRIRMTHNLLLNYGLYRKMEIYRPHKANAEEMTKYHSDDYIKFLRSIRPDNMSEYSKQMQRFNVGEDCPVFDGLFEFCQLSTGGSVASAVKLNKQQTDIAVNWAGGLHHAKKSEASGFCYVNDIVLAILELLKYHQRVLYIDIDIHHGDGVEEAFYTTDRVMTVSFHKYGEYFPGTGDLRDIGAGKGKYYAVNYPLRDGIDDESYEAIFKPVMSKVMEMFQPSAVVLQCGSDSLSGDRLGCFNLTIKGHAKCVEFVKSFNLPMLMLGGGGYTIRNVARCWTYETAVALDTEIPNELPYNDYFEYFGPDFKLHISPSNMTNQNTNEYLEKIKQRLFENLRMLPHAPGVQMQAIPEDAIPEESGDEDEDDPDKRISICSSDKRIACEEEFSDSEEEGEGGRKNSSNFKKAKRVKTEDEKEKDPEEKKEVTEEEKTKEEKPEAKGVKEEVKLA

Histone deacetylase 2 = Histone deacetylase 2 (Homo sapiens, UniProt Q92769); assay: Inhibition of HDAC2 (unknown origin)
Histone deacetylase 2, sequence (Q92769 whole entry): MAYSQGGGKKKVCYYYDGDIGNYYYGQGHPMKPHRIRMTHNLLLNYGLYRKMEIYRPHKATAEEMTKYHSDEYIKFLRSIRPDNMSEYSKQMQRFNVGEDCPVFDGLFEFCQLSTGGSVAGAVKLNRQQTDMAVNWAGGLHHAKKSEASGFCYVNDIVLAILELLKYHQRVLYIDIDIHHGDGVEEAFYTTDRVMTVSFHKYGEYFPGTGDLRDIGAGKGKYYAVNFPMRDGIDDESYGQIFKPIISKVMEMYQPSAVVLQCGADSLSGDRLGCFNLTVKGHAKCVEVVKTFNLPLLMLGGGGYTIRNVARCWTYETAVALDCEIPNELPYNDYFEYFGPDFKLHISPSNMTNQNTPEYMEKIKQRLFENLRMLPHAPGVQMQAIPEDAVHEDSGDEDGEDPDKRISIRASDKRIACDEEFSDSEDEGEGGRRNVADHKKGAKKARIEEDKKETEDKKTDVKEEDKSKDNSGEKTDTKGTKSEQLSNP

MCF7 [22] = assay: Antiproliferative activity against human MCF7 cells assessed as reduction in cell viability incubated for 24 hrs by MTT assay; format: functional, cell-based; settings: MCF7, 24 h
HepG2 [23] = assay: Antiproliferative activity against human HepG2 cells assessed as reduction in cell viability incubated for 24 hrs by MTT assay; format: functional, cell-based; settings: HepG2, 24 h

IC50 (MDA-MB-231): 790 nM
SMILES: CN1c2cc(N)ccc2C(=O)N2CCc3c([nH]c4ccccc34)C21 (configuration not stated)
IC50 (SW-620): 1280 nM

SMILES: COCCCCn1c2c(c3ccccc31)CCN1C(=O)c3ccccc3N(C)C21 (configuration not stated)
IC50 (DU-145): < 2000 nM
IC50 (NCI-H460): < 2000 nM
IC50 (MCF7 [1]): < 2000 nM
IC50 (HCT-15): < 2000 nM
IC50 (SF-268): < 2000 nM

SMILES: CN1c2ccc(-c3ccnc(N4CCNCC4)c3)cc2C(=O)N2CCc3c([nH]c4ccccc34)C21 (configuration not stated)
IC50 (HCT-116 [2]): 5940 nM
IC50 (A549 [3]): 6800 nM
IC50 (MDA-MB-435 [4]): 2780 nM

SMILES: CN1c2ccccc2C(=O)N2CCc3c([nH]c4c([N+](=O)[O-])cc([N+](=O)[O-])cc34)C21 (configuration not stated)
IC50 (MDA-MB-435 [5]): > 200000 nM
IC50 (A549 [6]): > 200000 nM
IC50 (HCT-116 [7]): < 200000 nM

SMILES: Cc1cc2c(s1)N(C)C1c3[nH]c4ccccc4c3CCN1C2=O (configuration not stated)
IC50 (A549 [8]): 10400 nM
IC50 (PC-9): 9460 nM
IC50 (MCF7 [9]): 9020 nM
IC50 (PC-3): 7770 nM

IC50 (HCCLM9): 9820 nM
IC50 (Huh-7): 740 nM
IC50 (HepG2 [10]): 2390 nM
SMILES: O=C1c2ccccc2N(c2ccccc2)C2c3[nH]c4ccccc4c3CCN12 (configuration not stated)

IC50 (A549 [11]): < 3 nM
IC50 (MDA-MB-435 [5]): < 3 nM
IC50 (HCT-116 [12]): < 3 nM
solubility [13]: 11 µg/mL (≈ 34.4 µM)
SMILES: CN1c2ccccc2C(=O)N2CCc3c([nH]c4ccc(O)cc34)C21 (configuration not stated)

IC50 (A549 [11]): 730 nM
IC50 (HCT-116 [12]): 32 nM
IC50 (MCF7 [14]): 200 nM
SMILES: CN1c2ccccc2C(=O)N2CCc3c([nH]c4ccc(OC(=O)CCCC(=O)Oc5ccc6[nH]c7c(c6c5)CCN5C(=O)c6ccccc6N(C)C75)cc34)C21 (configuration not stated)
IC50 [15]: 580 nM

IC50 (HCCLM9): 240 nM
IC50 (Huh-7): 440 nM
IC50 (HepG2 [10]): 920 nM
SMILES: Cc1ccc2[nH]c3c(c2c1)CCN1C(=O)c2ccccc2N(c2ccccc2)C31 (configuration not stated)

IC50 (MCF7 [16]): 520 nM
SMILES: CC(N)C(=O)Nc1ccc2[nH]c3c(c2c1)CCN1C(=O)c2ccccc2N(C)C31 (configuration not stated)

IC50 (A549 [11]): 680 nM
IC50 (HCT-116 [12]): 32 nM
IC50 (MCF7 [14]): 890 nM
SMILES: CN1c2ccccc2C(=O)N2CCc3c([nH]c4ccc(OC(=O)CCC(=O)Oc5ccc6[nH]c7c(c6c5)CCN5C(=O)c6ccccc6N(C)C75)cc34)C21 (configuration not stated)
IC50 [15]: 210 nM

IC50 (HCT-116 [17]): 1600 nM
SMILES: CN1c2ccccc2C(=O)N2[C@H](C(=O)Nc3ccc(C(=O)Nc4ccccc4N)cc3)Cc3c([nH]c4ccccc34)[C@@H]12

SMILES: CN1c2ccc(NC(=O)CBr)cc2C(=O)N2CCc3c([nH]c4ccccc34)C21 (configuration not stated)
IC50 (HCT-116 [2]): 28000 nM
IC50 (A549 [3]): 154000 nM
IC50 (MDA-MB-435 [4]): 22700 nM

IC50 (MDA-MB-435 [5]): < 3 nM
IC50 (A549 [6]): 2550 nM
IC50 (HCT-116 [7]): < 3 nM
SMILES: CN1c2ccccc2C(=O)N2CCc3c([nH]c4c(Cl)cccc34)C21 (configuration not stated)

IC50 (MCF7 [16]): 1800 nM
solubility at 24 h [18]: 10 µg/mL (≈ 31.4 µM)
SMILES: CN1c2ccccc2C(=O)N2CCc3c([nH]c4ccc(N)cc34)C21 (configuration not stated)

SMILES: COc1ccc2c(c1)c1c(n2C(=O)c2cc(OC)c(OC)c(OC)c2)C2Oc3ccccc3C(=O)N2CC1 (configuration not stated)
IC50 (HGC-27): 6100 nM

SMILES: CN1c2ccccc2C(=O)N2CCc3c(n(C(=O)c4ccc(Cl)cc4)c4ccc(O)cc34)C21 (configuration not stated)
IC50 (MDA-MB-435 [19]): < 2 nM
IC50 (A549 [20]): 26600 nM
IC50 (HCT-116 [21]): 50 nM

IC50 (HCT-116 [12]): 230 nM
IC50 (Histone deacetylase 1): 4 nM
IC50 (Histone deacetylase 2): 5 nM
SMILES: CN1c2ccc(NCC3CCN(c4ncc(C(=O)NO)cn4)CC3)cc2C(=O)N2CCc3c([nH]c4ccc(O)cc34)C21 (configuration not stated)

IC50 (HCCLM9): 1630 nM
IC50 (Huh-7): 780 nM
IC50 (HepG2 [10]): 21500 nM
SMILES: CN1c2ccccc2C(=O)N2CCc3c([nH]c4ccccc34)C21 (configuration not stated)
IC50 (HGC-27): 2280 nM

IC50 (HCT-116 [12]): 180 nM
IC50 (Histone deacetylase 1): 18 nM
IC50 (Histone deacetylase 2): 230 nM
SMILES: CN1c2ccc(NCc3ccc(/C=C/C(=O)NO)cc3)cc2C(=O)N2CCc3c([nH]c4ccc(O)cc34)C21 (configuration not stated)

IC50 (MCF7 [22]): 2680 nM
IC50 (HepG2 [23]): 18400 nM
SMILES: CN1c2ccccc2C(=O)N2CCc3c(n(S(=O)(=O)c4ccc([N+](=O)[O-])cc4)c4ccccc34)C21 (configuration not stated)

IC50 (MCF7 [16]): 190 nM
SMILES: CN1c2ccccc2C(=O)N2CCc3c([nH]c4ccc(NS(C)(=O)=O)cc34)C21 (configuration not stated)
